Results from patent US20090209536A1, “AMINOQUINAZOLINE CANNABINOID RECEPTOR MODULATORS FOR TREATMENT OF DISEASE” (KALYPSYS, INC., priority 2007, published 2009).

How the values were obtained:
[1] = molecular target: T1, human cannabinoid receptor type 1 (Homo sapiens, UniProt P21554); test: Human CB1 Radioligand Binding Assay (basis of selectivity, CB2 vs. CB1); settings: CB1: HEK 293 EBNA cells expressing human CB1; CB2: CHO CB2 membranes
T1 construct: purchased Perkin Elmer RBHCB1M; host or cells: HEK 293 EBNA cells
T1 sequence (P21554 whole entry): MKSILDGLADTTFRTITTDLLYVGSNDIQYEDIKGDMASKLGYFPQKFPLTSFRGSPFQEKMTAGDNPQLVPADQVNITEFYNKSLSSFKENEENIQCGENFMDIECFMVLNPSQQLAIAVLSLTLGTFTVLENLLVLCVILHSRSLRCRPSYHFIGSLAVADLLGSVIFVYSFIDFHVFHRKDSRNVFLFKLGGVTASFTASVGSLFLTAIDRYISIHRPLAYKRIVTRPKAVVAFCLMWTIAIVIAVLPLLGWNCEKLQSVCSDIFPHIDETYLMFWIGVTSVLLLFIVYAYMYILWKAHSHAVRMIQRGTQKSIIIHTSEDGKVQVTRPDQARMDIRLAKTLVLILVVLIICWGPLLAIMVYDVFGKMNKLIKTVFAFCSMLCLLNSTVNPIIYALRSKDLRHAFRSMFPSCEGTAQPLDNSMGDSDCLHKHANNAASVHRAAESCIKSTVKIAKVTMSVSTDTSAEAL
Description: 2. Human CB1 Radioligand Binding Assay
The incubation buffer was composed of 50 mM Tris-HCl pH 7.4, 2.5 mM EDTA, 5 mM MgCl2, 5.0 mg/ml fatty acid free BSA and the wash buffer was composed of 50 mM Tris-HCl pH 7.4, 2.5 mM EDTA, 5 mM MgCl2, 0.5 mg/ml fatty acid free BSA.

[2] = molecular target: T2, human cannabinoid receptor type 2 (Homo sapiens, UniProt P34972); test: Human CB2 Radioligand Binding Assay; settings: competition with [3H] CP-55,940; membranes from stably transfected CHO CB2 cells; read-out: CB2 Ligand Binding Asssay EC50
T2 construct: expressed in transfected cells; membrane preparation
T2 sequence (P34972 whole entry): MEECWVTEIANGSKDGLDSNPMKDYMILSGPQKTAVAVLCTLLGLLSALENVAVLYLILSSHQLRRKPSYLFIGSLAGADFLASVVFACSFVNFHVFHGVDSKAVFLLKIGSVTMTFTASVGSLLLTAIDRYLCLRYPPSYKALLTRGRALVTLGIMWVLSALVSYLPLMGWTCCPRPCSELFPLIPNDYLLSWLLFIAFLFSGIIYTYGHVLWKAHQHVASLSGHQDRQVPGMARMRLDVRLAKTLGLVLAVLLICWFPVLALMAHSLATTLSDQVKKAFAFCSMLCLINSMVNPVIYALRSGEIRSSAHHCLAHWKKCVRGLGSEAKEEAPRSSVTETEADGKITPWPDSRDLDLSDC
Outline: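 Filtration competition binding on membranes from CHO cells stably expressing human CB2, with [3H]CP-55,940 at its lot-specific Kd, in 50 mM Tris-HCl pH 7.4, EGTA, MgCl2, 5 mg/ml BSA, 1% DMSO; 90 min at 30° C. Compounds at 10 uM single point or dose-response; bound radioactivity by scintillation, 100 nM CP-55,940 as 100% efficacy.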

Compound | Selectivity, CB2 vs. CB1 [1] | EC50 [2]
Cn1ccnc1N1CCN(c2nc(-c3ccccc3Cl)nc3ccccc23)CC1 [Example 257, 2-(2-Chlorophenyl)-4-(4-(1-methyl-1H-imidazol-2-yl)piperazin-1-yl)quinazoline] | − (− indicates ≦ 10−fold) | > 1000 nM
Clc1ccccc1-c1nc(NCCCn2ccnc2)c2ccccc2n1 [Example 258, N-(3-(1H-Imidazol-1-yl)propyl)-2-(2-chlorophenyl)quinazolin-4-amine] | − (− indicates ≦ 10−fold) | > 1000 nM
CN(CCCn1ccnc1)c1nc(-c2ccccc2Cl)nc2ccccc12 [Example 259, N-(3-(1H-Imidazol-1-yl)propyl)-2-(2-chlorophenyl)-N-methylquinazolin-4-amine] | − (− indicates ≦ 10−fold) | > 1000 nM
O=C(c1ncc[nH]1)N1CCN(c2nc(-c3ccccc3Cl)nc3ccccc23)CC1 [Example 262, (4-(2-(2-Chlorophenyl)quinazolin-4-yl)piperazin-1-yl)(1H-imidazol-2-yl)methanone] | − (− indicates ≦ 10−fold) | > 1000 nM
Cn1ccnc1C(=O)N1CCN(c2nc(-c3ccccc3Cl)nc3ccccc23)CC1 [Example 263, (4-(2-(2-chlorophenyl)quinazolin-4-yl)piperazin-1-yl)(1-methyl-1H-imidazol-2-yl)methanone] | − (− indicates ≦ 10−fold) | > 1000 nM
Clc1ccccc1-c1nc(N2CCN(c3nccs3)CC2)c2ccccc2n1 [Example 264, 2-(4-(2-(2-Chlorophenyl)quinazolin-4-yl)piperazin-1-yl)thiazole] | − (− indicates ≦ 10−fold) | > 1000 nM
Fc1ccc2nc(-c3ccccc3Cl)nc(N3CCCC3)c2c1 [Example 270, 2-(2-Chlorophenyl)-6-fluoro-4-(pyrrolidin-1-yl)quinazoline] | − (− indicates ≦ 10−fold) | > 1000 nM
CCOC(=O)N1CCN(c2nc(-c3ccccc3F)nc3ccc(Cl)cc23)CC1 [Example 272, Ethyl 4-(6-chloro-2-(2-fluorophenyl)quinazolin-4-yl)piperazine-1-carboxylate] | − (− indicates ≦ 10−fold) | > 1000 nM
CCOC(=O)N1CCN(c2nc(-c3ccccc3F)nc3ccc(OC)cc23)CC1 [Example 275, Ethyl 4-(2-(2-fluorophenyl)-6-methoxyquinazolin-4-yl)piperazine-1-carboxylate] | + (+ indicates > 10−fold) | > 1000 nM
COc1ccc2nc(-c3ccccc3F)nc(N3CCCC3)c2c1 [Example 276, 2-(2-Fluorophenyl)-6-methoxy-4-(pyrrolidin-1-yl)quinazoline] | − (− indicates ≦ 10−fold) | > 1000 nM
CC(=O)N1CCN(c2nc(-c3ccc(C(C)(C)C)cc3)nc3ccc(Cl)cc23)CC1 [Example 277, 1-(4-(2-(4-tert-Butylphenyl)-6-chloroquinazolin-4-yl)piperazin-1-yl)ethanone] | − (− indicates ≦ 10−fold) | > 1000 nM
CCOC(=O)N1CCN(c2nc(-c3ccccc3F)nc3ccccc23)CC1 [Example 279, Ethyl 4-(2-(2-fluorophenyl)quinazolin-4-yl)piperazine-1-carboxylate] | + (+ indicates > 10−fold) | < 1000 nM
CC(=O)N1CCN(c2nc(-c3ccccc3F)nc3cccc(F)c23)CC1 [Example 280, 1-(4-(5-Fluoro-2-(2-fluorophenyl)quinazolin-4-yl)piperazin-1-yl)ethanone] | + (+ indicates > 10−fold) | < 1000 nM
CCOC(=O)N1CCN(c2nc(-c3ccccc3F)nc3cccc(F)c23)CC1 [Example 281, Ethyl 4-(5-fluoro-2-(2-fluorophenyl)quinazolin-4-yl)piperazine-1-carboxylate] | + (+ indicates > 10−fold) | < 1000 nM
Fc1ccccc1-c1nc(N2CCCC2)c2c(F)cccc2n1 [Example 282, 5-Fluoro-2-(2-fluorophenyl)-4-(pyrrolidin-1-yl)quinazoline] | + (+ indicates > 10−fold) | < 1000 nM
CC(C)CC(=O)N1CCN(c2nc(-c3ccccc3Cl)nc3cccc(Cl)c23)CC1 [Example 283, 1-(4-(5-Chloro-2-(2-chlorophenyl)quinazolin-4-yl)piperazin-1-yl)-3-methylbutan-1-one] | − (− indicates ≦ 10−fold) | > 1000 nM
CCCNC(=O)N1CCN(c2nc(-c3ccccc3Cl)nc3cccc(Cl)c23)CC1 [Example 284, 4-(5-Chloro-2-(2-chlorophenyl)quinazolin-4-yl)-N-propylpiperazine-1-carboxamide] | − (− indicates ≦ 10−fold) | > 1000 nM
CCCS(=O)(=O)N1CCN(c2nc(-c3ccccc3Cl)nc3cccc(Cl)c23)CC1 [Example 285, 5-Chloro-2-(2-chlorophenyl)-4-(4-(propylsulfonyl)piperazin-1-yl)quinazoline] | − (− indicates ≦ 10−fold) | > 1000 nM
CCOC(=O)N1CCN(c2nc(Nc3ccccc3)nc3cc(C(C)(C)C)ccc23)CC1 [Example 286, Ethyl 4-(7-tert-butyl-2-(phenylamino)quinazolin-4-yl)piperazine-1-carboxylate] | + (+ indicates > 10−fold) | < 1000 nM

Continued, values first:

Selectivity, CB2 vs. CB1 [1] | EC50 [2] | Compound
− (− indicates ≦ 10−fold) | < 1000 nM | CC(=O)N1CCN(c2nc(-c3ccccc3Cl)nc3cccc(C)c23)CC1 [Example 254, 1-(4-(2-(2-Chlorophenyl)-5-methylquinazolin-4-yl)piperazin-1-yl)ethanone]
+ (+ indicates > 10−fold) | < 1000 nM | CCOC(=O)N1CCN(c2nc(-c3ccccc3Cl)nc3cccc(C)c23)CC1 [Example 255, Ethyl 4-(2-(2-chlorophenyl)-5-methylquinazolin-4-yl)piperazine-1-carboxylate]
+ (+ indicates > 10−fold) | < 1000 nM | Cc1cccc2nc(-c3ccccc3Cl)nc(N3CCCC3)c12 [Example 256, 2-(2-Chlorophenyl)-5-methyl-4-(pyrrolidin-1-yl)quinazoline]
+ (+ indicates > 10−fold) | < 1000 nM | CCC(=O)N1CCN(c2nc(-c3ccccc3Cl)nc3cccc(Cl)c23)CC1 [Example 260, 1-(4-(5-Chloro-2-(2-chlorophenyl)quinazolin-4-yl)piperazin-1-yl)propan-1-one]
+ (+ indicates > 10−fold) | < 1000 nM | COC(=O)N1CCN(c2nc(-c3ccccc3Cl)nc3cccc(Cl)c23)CC1 [Example 261, Methyl 4-(5-chloro-2-(2-chlorophenyl)quinazolin-4-yl)piperazine-1-carboxylate]
+ (+ indicates > 10−fold) | < 1000 nM | CC(=O)N1CCN(c2nc(-c3ccccc3Cl)nc3cccc(Cl)c23)CC1 [Example 265, 1-(4-(5-Chloro-2-(2-chlorophenyl)quinazolin-4-yl)piperazin-1-yl)ethanone]
+ (+ indicates > 10−fold) | < 1000 nM | CCOC(=O)N1CCN(c2nc(-c3ccccc3Cl)nc3cccc(Cl)c23)CC1 [Example 266, Ethyl 4-(5-chloro-2-(2-chlorophenyl)quinazolin-4-yl)piperazine-1-carboxylate]
+ (+ indicates > 10−fold) | < 1000 nM | Clc1ccccc1-c1nc(N2CCCC2)c2c(Cl)cccc2n1 [Example 267, 5-Chloro-2-(2-chlorophenyl)-4-(pyrrolidin-1-yl)quinazoline]
− (− indicates ≦ 10−fold) | < 1000 nM | CC(=O)N1CCN(c2nc(-c3ccccc3Cl)nc3ccc(F)cc23)CC1 [Example 268, 1-(4-(2-(2-Chlorophenyl)-6-fluoroquinazolin-4-yl)piperazin-1-yl)ethanone]
+ (+ indicates > 10−fold) | < 1000 nM | CCOC(=O)N1CCN(c2nc(-c3ccccc3Cl)nc3ccc(F)cc23)CC1 [Example 269, Ethyl 4-(2-(2-chlorophenyl)-6-fluoroquinazolin-4-yl)piperazine-1-carboxylate]
− (− indicates ≦ 10−fold) | < 1000 nM | CC(=O)N1CCN(c2nc(-c3ccccc3F)nc3ccc(Cl)cc23)CC1 [Example 271, 1-(4-(6-Chloro-2-(2-fluorophenyl)quinazolin-4-yl)piperazin-1-yl)ethanone]
− (− indicates ≦ 10−fold) | < 1000 nM | Fc1ccccc1-c1nc(N2CCCC2)c2cc(Cl)ccc2n1 [Example 273, 6-Chloro-2-(2-fluorophenyl)-4-(pyrrolidin-1-yl)quinazoline]
− (− indicates ≦ 10−fold) | < 1000 nM | COc1ccc2nc(-c3ccccc3F)nc(N3CCN(C(C)=O)CC3)c2c1 [Example 274, 1-(4-(2-(2-Fluorophenyl)-6-methoxyquinazolin-4-yl)piperazin-1-yl)ethanone]
− (− indicates ≦ 10−fold) | < 1000 nM | CC(C)(C)c1ccc(-c2nc(N3CCCC3)c3cc(Cl)ccc3n2)cc1 [Example 278, 2-(4-tert-Butylphenyl)-6-chloro-4-(pyrrolidin-1-yl)quinazoline]
